The values that follow come from patent US4639510A, “(1-S-acetamidomethyl cysteine, 7-alanine)calcitonin” (Armour Pharmaceutical Company, priority 1985, dated 1987).

The assay has as its system serum calcium concentration. The experiment in a line: Biological assay of calcitonin analogs in vivo: reduction of serum calcium concentration vs synthetic salmon calcitonin standard. Set-up: species or system Rats. The procedure:
Biological Assay Of Calcitonin Analogs In Vivo
The biological potency of [S-Acm-Cys',Ala^7 ]salmon calcitonin was determined by comparing the reduction of serum calcium concentration which followed administration by graded doses of [S-Acm-Cys^1,Ala^7 ]SCT and synthetic salmon calcitonin standard. Rats were divided into four groups of seven animals, and each group was assigned at random to a dose of standard or test solution. Low and high doses were chosen from the linear portion of the dose-response curve. For the salmon calcitonin standard, the values were 0.7 and 2.1 mcg. peptide/100 g. body weight (BW). This dose approximates 3 and 9 MU/100 g. BW. Peptides were given by subcutaneous injection (0.2 ml/100 g. BW) and blood was withdrawn 1 hour later for serum calcium determination. Sera are processed and analyzed within two hours of collection. […]. Results were analyzed by a 2×2 parallel line assay [Gaddum, J. H., J. Pharm. Pharmacol., 6, 345 (1953)]. The standard salmon calcitonin used was independently determined to contain greater than 4,000 IU/mg. [S-Acm-Cys^1,Ala^7 ]SCT assayed at 6300 IU/mg, (95% 5800-6900).

On to Salmon calcitonin, for which the “biological potency of the standard (independently determined content)” value (standard salmon calcitonin used in the assay, independently determined) was “greater than 4,000 IU/mg”.

As for “[S-Acm-Cys^1,Ala^7)]salmon calcitonin [[S-Acm-Cys^1,Ala^7]SCT]”, the biological potency (rats, subcutaneous injection, serum calcium 1 hour later, 2×2 parallel line assay vs salmon calcitonin standard, 95% 5800-6900) came out at 6300 IU/mg.
